# What was measured:
# JAK2 WT = molecular target: T1, JAK2 WT (Homo sapiens, UniProt O60674); assay: Invitrogen SelectScreen profiling, wild-type JAK2; assay type: biochemical; conditions: read-out: IC50 against wild-type JAK2 (SelectScreen)
# T1 construct: These enzymes include both the JH1 and JH2 homology regions of the protein; purchased Invitrogen Corporation (SelectScreen assay service, Carlsbad, Calif.)
# Description: (§1) The JAK2 V617F mutant isoform has recently come into focus for its role in neoplastic transformation. Thus, compounds may also be testing using the SelectScreen™ assay service (Invitrogen Corporation, Carlsbad, Calif.), which includes both wild-type and V617F mutant isoforms of JAK2. These enzymes include both the JH1 and JH2 homology regions of the protein, and differ only at amino acid 617.
# JAK2 kinase [1] = molecular target: T2, JAK2 kinase (Homo sapiens, UniProt O60674); assay: Radiometric IC50Profiler assay (Millipore-Upstate); assay type: biochemical; set-up: purchased Millipore-Upstate (KinaseProfiler / IC50Profiler assay service, Dundee, UK); conditions: read-out: IC50 (IC50 Profiler data)
# T2 sequence (O60674 whole entry): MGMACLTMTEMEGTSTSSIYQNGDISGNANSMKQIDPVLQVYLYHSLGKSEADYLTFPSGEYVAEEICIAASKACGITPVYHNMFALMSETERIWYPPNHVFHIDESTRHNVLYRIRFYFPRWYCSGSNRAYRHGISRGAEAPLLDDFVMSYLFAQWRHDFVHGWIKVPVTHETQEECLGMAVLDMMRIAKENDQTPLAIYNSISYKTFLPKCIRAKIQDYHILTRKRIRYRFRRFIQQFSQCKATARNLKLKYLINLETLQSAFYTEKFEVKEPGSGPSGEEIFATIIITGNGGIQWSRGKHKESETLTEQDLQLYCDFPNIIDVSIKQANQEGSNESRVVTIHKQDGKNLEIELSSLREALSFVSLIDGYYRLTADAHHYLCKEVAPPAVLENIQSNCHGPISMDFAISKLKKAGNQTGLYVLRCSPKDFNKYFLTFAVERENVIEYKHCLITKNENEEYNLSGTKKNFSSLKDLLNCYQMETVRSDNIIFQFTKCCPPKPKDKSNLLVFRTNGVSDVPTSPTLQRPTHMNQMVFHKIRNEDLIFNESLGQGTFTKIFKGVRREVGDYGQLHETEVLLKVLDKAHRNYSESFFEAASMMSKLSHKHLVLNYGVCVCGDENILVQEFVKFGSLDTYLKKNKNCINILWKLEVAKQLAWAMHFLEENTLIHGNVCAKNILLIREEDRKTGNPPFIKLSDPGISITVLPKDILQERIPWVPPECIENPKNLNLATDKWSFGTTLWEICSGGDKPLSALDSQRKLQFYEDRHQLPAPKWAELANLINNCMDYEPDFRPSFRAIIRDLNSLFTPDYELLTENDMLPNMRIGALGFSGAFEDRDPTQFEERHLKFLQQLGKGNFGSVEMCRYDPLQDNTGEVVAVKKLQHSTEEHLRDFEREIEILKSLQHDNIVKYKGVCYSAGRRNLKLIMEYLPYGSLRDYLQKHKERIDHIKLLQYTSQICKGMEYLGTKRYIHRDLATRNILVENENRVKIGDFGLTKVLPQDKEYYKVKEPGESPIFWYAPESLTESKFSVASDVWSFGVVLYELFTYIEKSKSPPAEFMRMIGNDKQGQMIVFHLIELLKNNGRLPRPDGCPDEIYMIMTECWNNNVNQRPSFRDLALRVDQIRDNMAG
# Method: Compounds may also be tested using a radiometric assay; namely, the KinaseProfiler™ and IC50Profiler™ assay services (Millipore-Upstate, Dundee, UK). Briefly, compounds are tested at a single concentration (for single-point screening) or at a number of concentrations (for IC50 determinations) against recombinant JAK2 enzyme in the presence of radiolabeled ATP.
# JAK2 V617F = molecular target: T3, JAK2 V617F (Homo sapiens, UniProt O60674, V617F); assay: Invitrogen SelectScreen profiling, mutant JAK2; assay type: biochemical; conditions: read-out: IC50 against mutant JAK2 V617F (SelectScreen)
# T3 construct: These enzymes include both the JH1 and JH2 homology regions of the protein; purchased Invitrogen Corporation (SelectScreen assay service, Carlsbad, Calif.)
# T3 sequence (O60674 532-1132 V617F limits assumed): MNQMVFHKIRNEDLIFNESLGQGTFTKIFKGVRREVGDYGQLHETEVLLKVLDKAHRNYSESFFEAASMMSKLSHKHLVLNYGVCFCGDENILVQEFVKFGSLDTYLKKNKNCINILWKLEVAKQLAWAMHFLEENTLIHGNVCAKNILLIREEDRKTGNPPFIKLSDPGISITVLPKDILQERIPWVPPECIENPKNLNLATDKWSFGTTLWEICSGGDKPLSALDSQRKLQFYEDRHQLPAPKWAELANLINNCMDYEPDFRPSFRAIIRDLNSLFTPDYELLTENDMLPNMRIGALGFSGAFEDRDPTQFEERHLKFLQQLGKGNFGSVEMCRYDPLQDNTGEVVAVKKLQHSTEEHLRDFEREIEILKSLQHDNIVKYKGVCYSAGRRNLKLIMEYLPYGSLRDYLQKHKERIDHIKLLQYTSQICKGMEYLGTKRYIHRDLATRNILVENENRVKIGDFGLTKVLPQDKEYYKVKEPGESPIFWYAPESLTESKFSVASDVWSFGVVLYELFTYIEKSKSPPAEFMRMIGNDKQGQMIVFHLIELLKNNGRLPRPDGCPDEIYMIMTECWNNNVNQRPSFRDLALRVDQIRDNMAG
# Description: as §1
# [2] = test system: STAT5-phospho-Y694 in HEL cells expressing the V617F mutant of JAK2; assay: Western blot of STAT5 phosphorylation in HEL cells expressing JAK2 V617F; assay type: cell-based; conditions: Homo sapiens, 24 hours, Western blot densitometry, read-out: EC50 for reduction of STAT5 phosphorylation
# Method: (§2) In order to detect specific inhibition of JAK2 enzyme in cell culture, Western blot assays may also be performed. For this, cells which have been treated with a potential JAK2 inhibitor are lysed with a buffer specific for the isolation and preservation of proteins (1% Nonidet P-40, 120 mM NaCl, 30 mM Tris pH 7.4, 1:100 Protease Inhibitor Cocktail III [Calbiochem/EMD Biosciences], 1:100 Phosphatase Inhibitor Cocktail 1 [Sigma-Aldrich, Saint Louis, Mo.], 1:100 Phosphatase Inhibitor Cocktail 2 [Sigma-Aldrich, Saint Louis, Mo.]). The protein concentration in these lysates is then quantified using the BCA Protein Assay Kit (Pierce). Known amounts of protein, e.g. 50 ug, are loaded onto 10% SDS-polyacrylamide gels and are subjected to reducing, denaturing SDS-PAGE. Electrophoresed proteins are transferred to a nitrocellulose membrane, which is then probed with antibodies to STAT5, pSTAT5 (Tyr 694), STAT3, and pSTAT3 (Tyr 705). As STAT5 and STAT3, at Tyrosine 694 and Tyrosine 705 respectively, are substrates for JAK2, measuring the amount of phosphorylation at these sites in treated cells provides a means by which to evaluate the efficacy of JAK2 inhibitors.
# Briefly, HEL cells were plated in 25 cm^2 tissue culture flasks and incubated in the presence of varying concentrations of Compound Nos. 1 or 2 for 24 hours. Following incubation, cells were lysed and total protein isolated and quantified. 50 μg of total protein was electrophoresed and transferred to nitrocellulose membrane, at which point Western Blot analysis was performed using an antibody to STAT5-phospho-Y694. Comparisons to total STAT5 were made. Densitometry analysis was performed in order to quantify the amount of STAT5 phosphorylation in these treated cells.
# [3] = test system: STAT3-phospho-Y705 in AGS gastric cancer cell line; assay: Western blot of STAT3 phosphorylation in AGS cells; assay type: cell-based; conditions: 24 hours, 5-10 uM, Western blot densitometry
# Method: as §2, with “Electrophoresed proteins are transferred to a nitrocellulose membrane, which is then probed with antibodies to STAT5, pSTAT5 (Tyr 694), STAT3, and pSTAT3 (Tyr 705). As STAT5 and STAT3, at Tyrosine 694 and Tyrosine 705 respectively, are substrates for JAK2, measuring the amount of phosphorylation at these sites in treated cells provides a means by which to evaluate the efficacy of JAK2 inhibitors.” left out
# (§3) In this example, Compound 1-4 is shown to reduce the JAK2-dependent phosphorylation of STAT3 and STAT5 in the AGS gastric cancer cell line. […] Following incubation, cells were lysed and total protein isolated and quantified. […] Densitometry analysis was performed in order to quantify the amount of STAT3 and STAT5 phosphorylation in these treated cells. Phospho-STAT3 and phospho-STAT5 were compared to total STAT3 and STAT5 and the proportion of STAT phosphorylation relative to untreated controls was determined.
# JAK2 kinase [4] = molecular target: T2, JAK2 kinase; assay: JAK2 kinase inhibition assay (Promega Kinase-Glo); assay type: biochemical; conditions: read-out: IC50 against JAK2 kinase (Promega Kinase-Glo assay)
# Description: One illustrative manner in which JAK2 kinase activity can be determined is by quantifying the amount of ATP remaining in solution after an in vitro JAK2 kinase reaction, such as the Kinase-Glo Assay Kit (Promega, Inc., Madison, Wis.). The amount of ATP remaining in the solution after the kinase reaction serves as a substrate for the luciferase to catalyze luciferin to oxyluciferin plus one photon of light. Thus, the luminescent signal read by the Luminoskan Ascent Instrument (Thermo Electron Corp., Milford, Mass.) correlates with the amount of ATP present after the kinase reaction and inversely correlates with the amount of kinase activity. This assay is efficient at determining the IC50 values of kinase inhibitors against the JAK2 kinase. These assays are set up in duplicate 50 ul volumes in white, flat bottom 96 well plates. Inhibitors are added to the solution of 1× kinase buffer, 6 uM ATP, 62.5 uM JAK2-specific substrate, 30 ng of active JAK2 enzyme, and water in serial dilutions ranging from micromolar to nanomolar concentrations. This solution is incubated at 30 degrees Celsius at 360 rpm for two hours. Following the incubation, 50 ul of Kinase-Glo reagent is added to each well, including all positive and negative control wells, and incubated at room temperature for 15 minutes. […] The IC50 values can then be calculated for each inhibitor tested.
# IC50 values against JAK2 kinase (using the Promega Kinase-Glo assay) were measured for Compound Nos. 1-4, 1-7, 1-11 and 1-17.
# [5] = test system: nuclear STAT3 in AGS gastric cancer cells; assay: STAT3 nuclear translocation high-content assay (STAT3 HitKit, ArrayScan VTi); assay type: cell-based
# Method: When STAT3 is phosphorylated by JAK2, it forms a homodimer and is translocated to the nucleus to effect transcription of a number of target genes involved in cell proliferation. AGS gastric cancer cells were inoculated onto 96 well plates, and incubated in the presence of 5 μM Compound 1-4 for 1, 5 or 24 hours. Following incubation, cells were stained using the STAT3 HitKit (Thermo-Fisher) and detected using the Molecular Translocation BioApplication on a ArrayScan VTi high-content screening instrument (Thermo-Fisher). Nuclei were pseudostained blue (Hoechst) and STAT3 was pseudostained green (FITC).
# Nuclear STAT3 was reduced by greater than 50% 24 h after treatment with Compound 1-4 when compared with nuclear STAT3 levels in untreated samples.
# [6] = test system: various cancer cell lines; assay: Cell-Titer-Glo cell survival/proliferation assay; assay type: cell-based; conditions: screened between 300 nM and 10 nM, read-out: IC50 from % survival (Cell-Titer-Glo)
# Method: Cell culture-based assays can be used to evaluate the ability of compounds of the invention to inhibit one or more cellular activities, such as cancer cell growth and/or survival. Numerous cancer cell lines can be obtained from the American Type Culture Collection (ATCC) and other sources. Briefly, cells are seeded into 96-well, tissue-culture treated, opaque white plates (Thermo Electron, Vantaa, Finland), at between 600 and 14000 cells per well, depending on the speed of cell proliferation, in 100 ul of appropriate growth medium (determined by the ATCC). Cells are then exposed to the appropriate concentration of drug and allowed to grow in its presence for 96 hours. Following this, 100 ul of Cell-Titer-Glo reagent (Promega, Inc., Madison, Wis.) is added to each well. Plates are then shaken for 2 minutes at room temperature to allow for cell lysis and incubated for 10 minutes at room temperature to stabilize the luminescent signal. Similar to the Kinase-Glo assay reagent from Promega, this reagent contains both luciferase enzyme and its substrate luciferin. Luciferase, activated by ATP in the cell lysate, catalyzes the conversion of luciferin to oxyluciferin, a reaction which produces light. The amount of light produced is proportionate to the amount of ATP in the cell lysate, which is itself proportional to cell number and gives an index of cellular proliferation.
# Compound Nos. 1-4, 1-7, 1-11 and 1-17 were screened at a dilution range between 300 nM and 10 nM as JAK2 inhibitors, with percent survival being determined using the Cell-Titer-Glo Assay.
# [7] = test system: STAT5-phospho-Y694 in AGS gastric cancer cell line; assay: Western blot of STAT5 phosphorylation in AGS cells; assay type: cell-based; conditions: 24 hours, 5-10 uM, Western blot densitometry
# Method: as §2, with “Electrophoresed proteins are transferred to a nitrocellulose membrane, which is then probed with antibodies to STAT5, pSTAT5 (Tyr 694), STAT3, and pSTAT3 (Tyr 705). As STAT5 and STAT3, at Tyrosine 694 and Tyrosine 705 respectively, are substrates for JAK2, measuring the amount of phosphorylation at these sites in treated cells provides a means by which to evaluate the efficacy of JAK2 inhibitors.” left out
# as §3
# T1 sequence (O60674 532-1132 limits assumed): as the sequence (O60674 532-1132 V617F limits assumed) above, with F86V counted along it
Structure (SMILES),IC50 (JAK2 WT) [nM],IC50 (JAK2 kinase [1]) [nM],IC50 (JAK2 V617F) [nM],EC50 [2] [nM],STAT3 phosphorylation relative to untreated controls [3],IC50 (JAK2 kinase [4]) [nM],"STAT3 staining localisation ([5]; 5 μM, 1, 5 or 24 hours)","Reduction of nuclear STAT3 compared with untreated samples ([5]; 5 μM, 24 h after treatment)",IC50 [6] [nM],STAT5 phosphorylation relative to untreated controls [7]
"CN1CCN(c2ccc(Nc3nccc(Nc4ccc(F)c(Cl)c4)n3)cc2)CC1 [Compound 1-4, N4-(3-chloro-4-fluorophenyl)-N2-(4-(4-methylpiperazin-1-yl)phenyl)pyrimidine-2,4-diamine]",< 1000,< 1000,< 1000,299,reduced levels,< 1000,confined outside the nucleus,greater than 50%,< 10,reduced levels
"CN1CCN(c2ccc(Nc3nccc(Nc4cccc(CC#N)c4)n3)cc2)CC1 [Compound 1-7, 2-(3-(2-(4-(4-Methylpiperazin-1-yl)phenylamino)pyrimidin-4-ylamino)phenyl)acetonitrile]",< 1000,< 1000,< 1000,4,,< 1000,,,< 10,
"CN1CCN(c2ccc(Nc3nccc(Nc4cccc(CC#N)c4)n3)cc2F)CC1 [Compound 1-11, 2-(3-(2-(3-Fluoro-4-(4-methylpiperazin-1-yl)phenylamino)pyrimidin-4-ylamino)phenyl)acetonitrile]",< 1000,< 1000,< 1000,65.8,,< 1000,,,< 10,
"CN1CCN(C(=O)c2ccc(Nc3nccc(Nc4cccc(CC#N)c4)n3)cc2)CC1 [Compound 1-17, 2-(3-(2-(4-(4-methylpiperazine-1-carbonyl)phenylamino)pyrimidin-4-ylamino)phenyl)acetonitrile]",< 1000,< 1000,< 1000,266,,< 1000,,,< 10,

# From patent publication US20080214558A1, “PYRIMIDINE-2,4-DIAMINE DERIVATIVES AND THEIR USE AS JAK2 KINASE INHIBITORS” (SUPERGEN, INC., priority 2007, published 2008)
